Assay [1] addresses T1, Alpha-2C adrenergic receptor (Homo sapiens, UniProt P18825).
T1 sequence (P18825 whole entry): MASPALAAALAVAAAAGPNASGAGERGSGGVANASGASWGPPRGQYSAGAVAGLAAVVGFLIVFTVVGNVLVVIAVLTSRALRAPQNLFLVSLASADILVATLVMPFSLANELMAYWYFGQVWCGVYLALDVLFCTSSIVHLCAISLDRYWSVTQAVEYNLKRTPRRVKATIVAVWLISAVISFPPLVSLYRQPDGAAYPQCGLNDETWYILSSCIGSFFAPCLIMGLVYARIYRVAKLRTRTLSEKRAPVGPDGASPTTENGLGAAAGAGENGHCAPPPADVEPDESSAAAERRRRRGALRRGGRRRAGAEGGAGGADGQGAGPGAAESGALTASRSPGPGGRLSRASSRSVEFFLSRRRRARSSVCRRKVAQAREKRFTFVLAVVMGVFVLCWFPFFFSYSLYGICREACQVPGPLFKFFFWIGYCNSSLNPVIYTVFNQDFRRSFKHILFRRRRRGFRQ
The class given is functional.

Assay [2] concerns the target T2, 5-hydroxytryptamine receptor 1A (Homo sapiens, UniProt P08908).
T2 sequence (P08908 whole entry): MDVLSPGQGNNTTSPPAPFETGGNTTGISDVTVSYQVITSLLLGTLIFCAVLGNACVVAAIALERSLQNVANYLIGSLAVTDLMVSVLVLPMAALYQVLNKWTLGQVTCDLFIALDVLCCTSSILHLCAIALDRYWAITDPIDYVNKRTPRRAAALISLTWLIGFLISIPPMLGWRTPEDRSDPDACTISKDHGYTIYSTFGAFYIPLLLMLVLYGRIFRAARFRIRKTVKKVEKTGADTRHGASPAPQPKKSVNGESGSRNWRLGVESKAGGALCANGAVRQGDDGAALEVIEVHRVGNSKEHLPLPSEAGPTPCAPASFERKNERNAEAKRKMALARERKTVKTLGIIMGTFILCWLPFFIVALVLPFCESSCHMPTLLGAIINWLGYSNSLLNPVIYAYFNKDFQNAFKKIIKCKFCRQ
It counts as functional, cell-based.

Assay [3] addresses T3, Estrogen receptor (Homo sapiens, UniProt P03372).
T3 sequence (P03372 whole entry): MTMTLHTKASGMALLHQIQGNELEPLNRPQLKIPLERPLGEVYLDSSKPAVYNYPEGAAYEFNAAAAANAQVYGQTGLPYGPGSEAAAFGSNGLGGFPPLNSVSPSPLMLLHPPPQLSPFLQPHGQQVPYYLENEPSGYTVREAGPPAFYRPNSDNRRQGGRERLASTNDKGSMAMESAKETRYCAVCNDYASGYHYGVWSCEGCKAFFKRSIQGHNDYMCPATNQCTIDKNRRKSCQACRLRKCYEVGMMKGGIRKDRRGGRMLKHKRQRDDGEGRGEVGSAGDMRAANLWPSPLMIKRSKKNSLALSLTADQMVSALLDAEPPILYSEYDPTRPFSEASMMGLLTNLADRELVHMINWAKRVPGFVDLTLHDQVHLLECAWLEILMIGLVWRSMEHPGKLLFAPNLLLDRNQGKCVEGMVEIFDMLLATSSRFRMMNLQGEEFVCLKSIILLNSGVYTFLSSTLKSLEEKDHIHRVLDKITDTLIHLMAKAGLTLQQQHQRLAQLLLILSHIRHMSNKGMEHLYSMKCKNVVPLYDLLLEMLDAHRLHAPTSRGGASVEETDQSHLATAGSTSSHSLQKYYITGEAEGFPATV

In assay [4] the target is D(1A) dopamine receptor (Homo sapiens, UniProt P21728). It counts as functional, cell-based.
D(1A) dopamine receptor, sequence (P21728 whole entry): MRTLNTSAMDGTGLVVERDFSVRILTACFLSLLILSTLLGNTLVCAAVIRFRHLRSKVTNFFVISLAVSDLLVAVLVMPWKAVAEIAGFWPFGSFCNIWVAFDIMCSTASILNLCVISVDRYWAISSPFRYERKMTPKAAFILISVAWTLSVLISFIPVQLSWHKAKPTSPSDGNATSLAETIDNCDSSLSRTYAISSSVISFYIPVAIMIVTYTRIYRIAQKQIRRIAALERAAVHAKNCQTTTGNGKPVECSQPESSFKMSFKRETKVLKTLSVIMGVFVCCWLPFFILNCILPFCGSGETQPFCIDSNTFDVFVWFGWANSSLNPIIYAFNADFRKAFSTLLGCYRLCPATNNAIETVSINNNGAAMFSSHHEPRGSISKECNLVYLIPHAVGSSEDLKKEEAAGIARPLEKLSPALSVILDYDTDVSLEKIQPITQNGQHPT
Assay [5] addresses T4, Cholecystokinin receptor type A (Homo sapiens, UniProt P32238).
T4 sequence (P32238 whole entry): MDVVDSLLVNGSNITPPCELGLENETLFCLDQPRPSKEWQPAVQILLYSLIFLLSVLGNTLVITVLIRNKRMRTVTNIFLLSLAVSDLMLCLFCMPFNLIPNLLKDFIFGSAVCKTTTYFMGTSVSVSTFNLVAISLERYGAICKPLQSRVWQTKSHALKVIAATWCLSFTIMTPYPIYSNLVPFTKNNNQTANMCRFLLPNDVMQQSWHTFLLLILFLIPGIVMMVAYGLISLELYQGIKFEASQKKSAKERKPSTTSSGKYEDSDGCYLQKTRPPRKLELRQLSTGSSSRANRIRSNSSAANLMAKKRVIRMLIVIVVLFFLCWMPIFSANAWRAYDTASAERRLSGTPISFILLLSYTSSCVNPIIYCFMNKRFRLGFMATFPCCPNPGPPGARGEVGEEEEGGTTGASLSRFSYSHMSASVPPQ

The target in assay [6] is T5, 5-hydroxytryptamine receptor 3A (Homo sapiens, UniProt P46098).
T5 sequence (P46098 whole entry): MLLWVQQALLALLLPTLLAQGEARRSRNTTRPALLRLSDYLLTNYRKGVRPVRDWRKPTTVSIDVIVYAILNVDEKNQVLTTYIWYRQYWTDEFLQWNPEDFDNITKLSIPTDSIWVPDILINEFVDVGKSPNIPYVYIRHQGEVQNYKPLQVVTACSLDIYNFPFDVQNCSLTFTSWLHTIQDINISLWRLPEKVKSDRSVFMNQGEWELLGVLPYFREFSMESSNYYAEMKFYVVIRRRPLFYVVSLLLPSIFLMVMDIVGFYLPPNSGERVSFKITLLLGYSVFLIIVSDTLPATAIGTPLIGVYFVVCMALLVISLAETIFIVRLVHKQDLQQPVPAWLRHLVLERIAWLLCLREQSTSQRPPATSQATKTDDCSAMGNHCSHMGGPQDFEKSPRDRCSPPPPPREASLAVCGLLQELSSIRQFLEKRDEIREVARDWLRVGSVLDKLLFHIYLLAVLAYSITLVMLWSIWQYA
The class given is functional.

The target in assay [7] is T6, Type-1 angiotensin II receptor (Homo sapiens, UniProt P30556).
T6 sequence (P30556 whole entry): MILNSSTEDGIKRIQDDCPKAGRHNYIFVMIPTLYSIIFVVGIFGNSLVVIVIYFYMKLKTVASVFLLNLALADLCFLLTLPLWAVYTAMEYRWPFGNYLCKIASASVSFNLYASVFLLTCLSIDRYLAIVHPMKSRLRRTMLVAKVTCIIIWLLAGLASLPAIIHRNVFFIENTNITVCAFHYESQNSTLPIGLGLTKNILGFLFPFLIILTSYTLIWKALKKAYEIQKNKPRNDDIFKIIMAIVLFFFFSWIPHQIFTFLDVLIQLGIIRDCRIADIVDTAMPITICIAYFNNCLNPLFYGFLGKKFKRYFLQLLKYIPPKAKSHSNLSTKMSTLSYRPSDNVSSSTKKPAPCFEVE

Assay [8] has as its target Voltage-dependent L-type calcium channel subunit alpha-1C (Rattus norvegicus, UniProt P22002). It counts as functional.

Where only a bound is given, the exact number is not on record here.
Note: assay procedure not described here.

Voltage-dependent L-type calcium channel subunit alpha-1C, sequence (P22002 whole entry): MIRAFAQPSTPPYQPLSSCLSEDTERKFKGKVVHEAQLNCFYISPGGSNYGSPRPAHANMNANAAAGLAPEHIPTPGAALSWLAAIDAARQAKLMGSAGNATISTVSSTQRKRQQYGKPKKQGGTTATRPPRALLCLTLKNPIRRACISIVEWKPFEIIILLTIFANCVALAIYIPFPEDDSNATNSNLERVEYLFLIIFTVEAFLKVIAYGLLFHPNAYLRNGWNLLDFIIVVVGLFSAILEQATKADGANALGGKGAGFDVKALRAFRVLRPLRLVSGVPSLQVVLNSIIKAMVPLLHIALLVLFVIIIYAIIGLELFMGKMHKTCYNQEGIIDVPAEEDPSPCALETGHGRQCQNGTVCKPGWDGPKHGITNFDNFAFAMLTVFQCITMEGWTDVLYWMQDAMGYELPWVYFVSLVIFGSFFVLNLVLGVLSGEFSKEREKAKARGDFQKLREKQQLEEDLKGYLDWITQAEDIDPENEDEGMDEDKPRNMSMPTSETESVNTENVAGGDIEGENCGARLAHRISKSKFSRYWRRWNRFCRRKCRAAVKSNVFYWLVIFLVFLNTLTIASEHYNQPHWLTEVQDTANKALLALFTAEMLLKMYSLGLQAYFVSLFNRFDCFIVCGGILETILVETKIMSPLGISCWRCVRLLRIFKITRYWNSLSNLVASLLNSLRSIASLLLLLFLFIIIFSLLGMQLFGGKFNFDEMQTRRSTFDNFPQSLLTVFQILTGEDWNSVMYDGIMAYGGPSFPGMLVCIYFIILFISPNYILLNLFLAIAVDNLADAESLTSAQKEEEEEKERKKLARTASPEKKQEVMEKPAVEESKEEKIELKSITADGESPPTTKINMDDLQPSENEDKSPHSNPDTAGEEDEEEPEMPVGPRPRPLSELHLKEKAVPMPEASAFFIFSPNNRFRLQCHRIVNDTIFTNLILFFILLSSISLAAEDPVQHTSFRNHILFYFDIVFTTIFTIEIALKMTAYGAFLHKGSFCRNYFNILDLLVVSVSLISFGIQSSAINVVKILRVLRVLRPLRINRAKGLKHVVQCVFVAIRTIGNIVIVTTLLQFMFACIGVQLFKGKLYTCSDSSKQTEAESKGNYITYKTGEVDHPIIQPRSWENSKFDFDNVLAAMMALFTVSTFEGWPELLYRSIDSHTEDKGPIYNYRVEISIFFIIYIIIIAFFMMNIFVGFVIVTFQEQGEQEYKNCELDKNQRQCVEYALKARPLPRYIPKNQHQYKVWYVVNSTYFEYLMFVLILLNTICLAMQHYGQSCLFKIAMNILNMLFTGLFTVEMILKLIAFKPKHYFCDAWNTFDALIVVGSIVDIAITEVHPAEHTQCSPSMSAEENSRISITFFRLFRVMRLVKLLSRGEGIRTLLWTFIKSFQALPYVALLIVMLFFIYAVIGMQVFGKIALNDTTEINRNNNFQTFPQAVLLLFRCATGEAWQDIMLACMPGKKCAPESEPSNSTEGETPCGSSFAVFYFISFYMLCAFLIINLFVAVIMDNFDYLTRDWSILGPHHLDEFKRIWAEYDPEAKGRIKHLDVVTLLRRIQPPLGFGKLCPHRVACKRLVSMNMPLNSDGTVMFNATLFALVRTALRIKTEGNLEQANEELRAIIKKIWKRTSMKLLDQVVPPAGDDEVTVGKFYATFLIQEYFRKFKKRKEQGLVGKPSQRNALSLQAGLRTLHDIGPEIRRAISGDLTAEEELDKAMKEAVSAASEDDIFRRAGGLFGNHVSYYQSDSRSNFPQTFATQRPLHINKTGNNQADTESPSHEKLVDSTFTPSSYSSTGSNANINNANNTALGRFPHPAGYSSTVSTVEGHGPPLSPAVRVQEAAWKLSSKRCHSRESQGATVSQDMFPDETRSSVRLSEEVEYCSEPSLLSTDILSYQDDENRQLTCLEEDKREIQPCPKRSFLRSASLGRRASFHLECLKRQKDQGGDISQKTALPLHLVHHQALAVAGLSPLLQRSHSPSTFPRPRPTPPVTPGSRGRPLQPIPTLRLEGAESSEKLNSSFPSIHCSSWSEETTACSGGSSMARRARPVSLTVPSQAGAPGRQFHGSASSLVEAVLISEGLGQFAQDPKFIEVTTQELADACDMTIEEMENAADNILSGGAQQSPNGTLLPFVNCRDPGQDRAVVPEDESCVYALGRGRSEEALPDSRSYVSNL

The AC50 is the concentration at which the activity in the assay is half-maximal. Consider `NS(=O)(=O)c1ccc(N2CCCCS2(=O)=O)cc1`, for which the AC50 in assay [1], in assay [2], in assay [3], in assay [4], in assay [5] and in assay [6] was more than 30 µM in each case. The same compound came in with an AC50 in assay [7] of more than 30 µM.
For `COc1cc(N)cn[n+]1-c1ccccc1` [AMEZINIUM METILSULFATE], the half-maximal activity concentration (AC50) is more than 30 µM in assay [1]; 9.1 µM in assay [2]; more than 30 µM in assay [4]; more than 30 µM in assay [5]; more than 30 µM in assay [6]; more than 30 µM in assay [8]. The compound also displayed a half-maximal activity concentration (AC50) in assay [7] of more than 30 µM.
In the case of `CNCCc1ccccn1` [BETAHISTINE], the concentration at half-maximal activity (AC50) in assay [1], in assay [2], in assay [4], in assay [5], in assay [6] and in assay [8] was more than 30 µM in each case. Also, the concentration at half-maximal activity (AC50) in assay [7] was more than 30 µM.
For the compound `CO/N=C(\C(=O)N[C@@H]1C(=O)N2C(C(=O)[O-])=C(C[n+]3ccc(N)n3CCO)CS[C@H]12)c1csc(N)n1` [CEFOSELIS], the AC50 in assay [1], in assay [4], in assay [5], in assay [6], in assay [8] and in assay [7] was more than 30 µM throughout.
As to `CC(=O)OCC1=C(C(=O)O)N2C(=O)[C@@H](NC(=O)Cc3cccs3)[C@H]2SC1` [CEPHALOTHIN], the concentration at half-maximal activity (AC50) in assay [1], in assay [2], in assay [4], in assay [5], in assay [6] and in assay [7] was more than 30 µM each time.
For `CC1=C(C(=O)O)N2C(=O)[C@@H](NC(=O)[C@H](N)C3=CCC=CC3)[C@H]2SC1` [CEPHRADINE], the AC50 in assay [1], in assay [3], in assay [4], in assay [5], in assay [6] and in assay [7] was more than 30 µM in each case.
For `CC(=O)Oc1cccc2c1C(=O)c1c(OC(C)=O)cc(C(=O)O)cc1C2=O` [DIACEREIN], the half-maximal activity concentration (AC50) in assay [1], in assay [4], in assay [5], in assay [6], in assay [8] and in assay [7] was more than 30 µM each time.
As to `CCc1ccc(C(=O)C(C)CN2CCCCC2)cc1` (stereo not given) [EPERISONE], the AC50 was 2.09 µM in assay [1]; more than 30 µM in assay [4]; more than 30 µM in assay [5]; more than 30 µM in assay [6]; more than 30 µM in assay [8]; more than 30 µM in assay [7].
Take `CCN1C(=O)NC(c2ccccc2)C1=O` (stereo not given) [ETHOTOIN]: the AC50 in assay [1], in assay [2], in assay [3], in assay [4], in assay [5] and in assay [6] was more than 30 µM each time. Moreover, the half-maximal activity concentration (AC50) in assay [7] is more than 30 µM.
Turning to `CCC(=O)O[C@H](CC(=O)O)C[N+](C)(C)C` [LEVOCARNITINE PROPIONATE], the AC50 in assay [1], in assay [2], in assay [3], in assay [4], in assay [5] and in assay [6] was more than 30 µM in each case. This compound also yielded an AC50 in assay [7] of more than 30 µM.
For the compound `CCN(CC)CC(=O)Nc1c(C)cccc1C` [LIDOCAINE], the concentration at half-maximal activity (AC50) in assay [5] was more than 30 µM; in assay [7] it was more than 10 µM.
For the compound `O=C(O)c1nn(Cc2ccc(Cl)cc2Cl)c2ccccc12` [LONIDAMINE], the concentration at half-maximal activity (AC50) in assay [1], in assay [2], in assay [3], in assay [4], in assay [5] and in assay [6] was more than 30 µM in each case. The concentration at half-maximal activity (AC50) in assay [7] was more than 30 µM.
Take `COc1nc(C)nc(Cl)c1N=C1NCCN1` [MOXONIDINE]: the AC50 in assay [2], in assay [4], in assay [5], in assay [6], in assay [8] and in assay [7] was more than 30 µM throughout.
In the case of `COC(=O)c1ccc2c(c1)NC(=O)/C2=C(\Nc1ccc(N(C)C(=O)CN2CCN(C)CC2)cc1)c1ccccc1` [NINTEDANIB], the AC50 in assay [1], in assay [4], in assay [5], in assay [6] and in assay [7] was more than 30 µM in each case.
Consider `CCN(CC)Cc1nccn1-c1ccc([N+](=O)[O-])cc1C(=O)c1ccccc1Cl` [NIZOFENONE], for which the concentration at half-maximal activity (AC50) in assay [1], in assay [4], in assay [5], in assay [6], in assay [8] and in assay [7] was more than 30 µM each time.
With `CN1CCCN=C1/C=C/c1cccc(O)c1` [OXANTEL], the AC50 in assay [1], in assay [2], in assay [4], in assay [5], in assay [6] and in assay [8] was more than 30 µM throughout. In assay [7], this compound gave an AC50 of more than 30 µM.
With `CS(=O)(=O)NC(=O)CCC/C=C\C[C@H]1C(=O)C[C@@H](O)[C@@H]1/C=C/[C@@H](O)COc1ccccc1` [SULPROSTONE], the concentration at half-maximal activity (AC50) in assay [1], in assay [2], in assay [3], in assay [4], in assay [5] and in assay [6] was more than 30 µM throughout. In addition, in assay [7], the AC50 is more than 30 µM.

Values taken from ChEMBL document CHEMBL5291721, “A preclinical secondary pharmacology resource illuminates target-adverse drug reaction associations of marketed drugs” (Nat Commun, 2023).
